Experimental data published in patent publication US20120020958A1, “FIBCD1 FOR THE PREVENTION AND TREATMENT OF DISEASES” (Dansk Universitet, priority 2008, published 2012).
pIC50: −log10 of the molar value. Read-outs that look alike come from different tables or passages of the source.

Columns and labels:
[1] = molecular target: T1, FIBCD1 (the FReD of FIBCD1) (Homo sapiens, UniProt Q8N539); experiment: Pull-down assay of FIBCD1 (FReD) with insoluble polysaccharides; assay type: binding; settings: 20 μg FIBCD1 FReD, 2 mg insoluble substance
T1 construct: 20 μg of the FIBCD1 (the FReD of FIBCD1)
T1 sequence (Q8N539 235-458 limits assumed): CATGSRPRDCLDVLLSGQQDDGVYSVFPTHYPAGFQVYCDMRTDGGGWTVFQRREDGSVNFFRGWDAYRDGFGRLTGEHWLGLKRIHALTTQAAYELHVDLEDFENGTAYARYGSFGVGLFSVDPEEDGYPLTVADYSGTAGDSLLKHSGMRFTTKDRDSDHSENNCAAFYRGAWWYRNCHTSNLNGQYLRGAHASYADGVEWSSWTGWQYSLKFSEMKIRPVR
Protocol: (§1) (B) Microtiterplates were coated with LTA, mannan, peptidoglycan or NAc-BSA and increasing concentrations of FIBCD1 was added. (C) Pull-down assays where 20 μg of the FIBCD1 (the FReD of FIBCD1) or as a positive control 20 μg of wheat germ agglutinin (WGA) was added to 2 mg insoluble chitin, cellulose, zymozane or beta-glucan. […] BSA was used as control. Pellet fractions were analyzed by SDS-PAGE and Coomassie blue staining.

FIBCD1 = molecular target: T2, FIBCD1 (Homo sapiens, UniProt Q8N539); experiment: ELISA binding of FIBCD1 to coated microtiter plates; settings: for binding of FIBCD1 to coated substance: ELISA, microtiter plates coated with the substance; for substitution for calcium in binding to acetylated BSA: 5 mM MnCl2 or 5 mM MgCl2 instead of CaCl2
T2 construct: The V5-His tagged putative ectodomain of FIBCD1, encoding amino acid 54-461, was generated by PCR; made in house; host or cells: HEK293 (Flp-In T-REx), secreted via pSecTag/FRT/V5-His TOPO vector
T2 sequence (Q8N539 54-461): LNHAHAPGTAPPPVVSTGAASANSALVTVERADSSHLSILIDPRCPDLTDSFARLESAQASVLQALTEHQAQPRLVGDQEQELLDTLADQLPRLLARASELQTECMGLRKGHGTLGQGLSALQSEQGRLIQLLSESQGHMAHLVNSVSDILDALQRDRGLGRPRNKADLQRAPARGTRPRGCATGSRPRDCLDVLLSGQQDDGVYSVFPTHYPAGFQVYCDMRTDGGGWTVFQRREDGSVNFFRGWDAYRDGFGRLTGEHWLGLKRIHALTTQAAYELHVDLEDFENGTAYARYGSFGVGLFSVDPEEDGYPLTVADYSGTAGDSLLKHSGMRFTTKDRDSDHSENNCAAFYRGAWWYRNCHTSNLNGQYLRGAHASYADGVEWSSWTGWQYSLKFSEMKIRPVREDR
Protocol: (A) SDS-PAGE and Western blotting analysis of culture supernatant from HEK293 cells expression FIBCD1 in the non-reduced (lane 1) and reduced (lane 2) state developed with the monoclonal rat anti-FIBCD1 (HG-HYB-12-2). […] (D) Silver stained SDS-PAGE of fractions from (E) in the reduced and unreduced state. (E) Microtiterplates were coated with BSA or NAc-BSA and increasing amounts of FIBCD1 was added in the presence 5 mM CaCl2 or 10 mM EDTA. (F) Microtiterplates were coated with NAc-BSA and 100 ng/ml and FIBCD1 was added in the presence 0-1 mM CaCl2. (G) Microtiterplates were coated with NAc-BSA and increasing amounts of FIBCD1 was added in the presence 5 mM CaCl2, 5 mM MgCl2 or 5 mM MnCl2.
as §1, with “(A) Microtiter plates were coated with LPS 055, LPS 0111 LPS 026 or NAc-BSA. (B)” for “(B)”
(§2) An ELISA system was used to evaluate the ability of various acetylated and nonacetylated compounds to inhibit the binding between FIBCD1 ectodomain and acetylated BSA (Sigma). Microtiter plates (NUNC Maxisorp, Denmark) were coated with acetylated BSA (Sigma) or BSA (Sigma) and blocked with TBS/Tw before being incubated with FIBCD1 ectodomain samples diluted in TBS/Tw (5 mM CaCl2). The binding between FIBCD1 and acetylated BSA was also tested in the presence of 10 mM EDTA, 5 mM MnCl2 or 5 mM MgCl2 instead of CaCl2. After incubation overnight at 4° C. and washing, the wells were incubated for 2 h at room temperature with chicken anti-FIBCD1 antibodies diluted 1:1000 in TBS/Tw (5 mM CaCl2). The plates were washed with TBS/Tw (5 mM CaCl2) and incubated for 1 h with alcalic phosphatase-labelled anti-chicken IgY (whole molecule) (Sigma-Aldrich) diluted 1:1500 in TBS/Tw (5 mM CaCl2) followed by washing and developed with 1 mg/ml para-nitrophenylphosphate, disodium salt (PNPP) (Boehringer Mannheim, Germany) in substrate buffer.

[2] = system: CHO cells transfected with FIBCD1 cDNA; experiment: FIBCD1-mediated endocytosis of acetylated BSA in CHO cells; assay type: cell-based, Chinese hamster; settings: for uptake and degradation of 125I labelled acetylated BSA: GlcNAc at 10 mM
Protocol: Degradation was measured, as the cell-mediated increase in of TCA-soluble radioactivity in the growth medium and cell-associated was determined by counting the radioactivity of the cell lysate. (A) CHO cells and (B) CHO/FIBCD1 cells. (C) Effect of lysosomal inhibitors chloroquine and leupeptin (both 100 μM) on endocytosis of NAc-BSA. Values are mean+/−1 SD of triplicate samples. […] Fluorescence microscopy of CHO-FReD (E) and CHO (F) after incubation with Alexa488 acetylated BSA.

FIBCD1 ectodomain = molecular target: T3, FIBCD1 ectodomain (Homo sapiens, UniProt Q8N539); experiment: ELISA inhibition of binding between FIBCD1 ectodomain and acetylated BSA; settings: for I50 relative (relative inhibitor potential): I50 of the best inhibitor divided by I50 of the compound; for pIC50: read-out: I50 of the binding between FIBCD1 and acetylated BSA; for inhibition of binding of FIBCD1 to acetylated BSA: at a concentration of 50 mM
T3 construct: The V5-His tagged putative ectodomain of FIBCD1, encoding amino acid 54-461, was generated by PCR; made in house; host or cells: HEK293 (Flp-In T-REx), secreted via pSecTag/FRT/V5-His TOPO vector
T3 sequence (Q8N539 54-461): T2 sequence (Q8N539 54-461)
Protocol: The ligand selectivity of FIBCD1 was investigated by inhibiting the binding of FIBCD1 ectodomain to acetylated BSA coated microtiter plates (FIG. 2G, Table 1).
as §2
The mixtures were incubated overnight in the acetylated BSA coated wells overnight at 4° C. and processed as described above.

[3] = 100 ng/ml FIBCD1 ectodomain, 5 mM CaCl2, N.I. = less than 50% inhibition at 50 mM

## cellulose
[1]
  binding of FIBCD1 in pull-down: no binding

## mannan
FIBCD1
  binding of FIBCD1 to coated substance: no binding

## lipopolysaccharide [LPS]
FIBCD1
  binding of FIBCD1 to coated substance: no binding

## ^125I-labeled NAc-BSA: acetylated BSA labelled with 125I using the chloroamine-T method
[2]; CHO/FIBCD1 cells, 37° C.
  time at which cell-associated radioactivity reached a plateau: one
[2]
  uptake in non-transfected CHO cells: no uptake

## CC(=O)N[C@H]1[C@H]([C@H](O)[C@H](O)CO)OC(O)(C(=O)O)C[C@@H]1O (some centres unmarked) [Sialic acid, N-acetylneuraminic acid]
FIBCD1 ectodomain
  I50 relative (relative inhibitor potential): 1
  pIC50: 2.70

## C[C@H](N)C(=O)O [Alanine, L-alanine, reference compound]
FIBCD1 ectodomain; [3]
  I50 of the binding between FIBCD1 and acetylated BSA: N.I.

## CC(=O)OCC[N+](C)(C)C [Acetylcholine, acetyl cholin]
FIBCD1 ectodomain
  pIC50: 2.00

## [Mn+2] [manganese]
FIBCD1
  substitution for calcium in binding to acetylated BSA: could substitute for calcium

## CC(=O)N[C@@H](C)C(=O)O [N-acetylalanine]
FIBCD1 ectodomain
  I50 relative (relative inhibitor potential): 0.5
  pIC50: 2.40

## CCCC(=O)[O-].[Na+] [Butyrate, sodium butyrate, reference compound]
FIBCD1 ectodomain; [3]
  I50 of the binding between FIBCD1 and acetylated BSA: N.I.
FIBCD1 ectodomain
  inhibition of binding of FIBCD1 to acetylated BSA: did not inhibit

## zymosan
[1]
  binding of FIBCD1 in pull-down: no binding

## peptidoglycan
FIBCD1
  binding of FIBCD1 to coated substance: no binding

## β-1,3-glucan
[1]
  binding of FIBCD1 in pull-down: no binding

## CC(=O)N[C@@H]1C(O)O[C@H](CO)[C@@H](O)[C@@H]1O (some centres unmarked) [N-acetylmannoseamine, N-acetyl mannosamine]
FIBCD1 ectodomain
  I50 relative (relative inhibitor potential): 1
  pIC50: 2.70

## CCC(=O)[O-].[Na+] [Propionate, sodium propionate, reference compound]
FIBCD1 ectodomain; [3]
  I50 of the binding between FIBCD1 and acetylated BSA: N.I.
FIBCD1 ectodomain
  inhibition of binding of FIBCD1 to acetylated BSA: did not inhibit

## N[C@H]1C(O)O[C@H](CO)[C@H](O)[C@@H]1O (some centres unmarked) [Galactoseamin, galactosamine, reference compound]
FIBCD1 ectodomain; [3]
  I50 of the binding between FIBCD1 and acetylated BSA: N.I.

## N[C@@H]1C(O)O[C@H](CO)[C@@H](O)[C@@H]1O (some centres unmarked) [Mannosamine, mannosamine, reference compound]
FIBCD1 ectodomain; [3]
  I50 of the binding between FIBCD1 and acetylated BSA: N.I.

## N-acetyl bovine serum albumin [NAc-BSA]
FIBCD1
  binding of FIBCD1 to coated substance: binding
FIBCD1; listed as acetylated BSA
  binding of FIBCD1 to coated substance: bound
[2]; CHO/FIBCD1 cells
  uptake and degradation of 125I labelled acetylated BSA: inhibited

## N[C@H]1C(O)O[C@H](CO)[C@@H](O)[C@@H]1O (some centres unmarked) [Glucosamine, glucosamine, reference compound]
FIBCD1 ectodomain; [3]
  I50 of the binding between FIBCD1 and acetylated BSA: N.I.

## [Ca+2].[Cl-].[Cl-] [calcium, calcium chloride]
FIBCD1; 100 ng/ml FIBCD1, 0-1 mM CaCl2
  calcium concentration for optimum binding to acetylated BSA: 0.6 mM

## lipoteichoid acid [LTA]
FIBCD1
  binding of FIBCD1 to coated substance: no binding

## [Mg] [magnesium]
FIBCD1
  substitution for calcium in binding to acetylated BSA: could not

## CC(=O)N[C@@H]1[C@@H](O)[C@@H](O)[C@@H](CO)O[C@@H]1O [N-acetylgalactoseamine]
FIBCD1 ectodomain; [3]
  pIC50: 2.30
FIBCD1 ectodomain
  I50 relative (relative inhibitor potential): 0.4

## Alexa488 labelled acetylated BSA: acetylated BSA coupled with Alexa Fluor 488 C5 maleimide
[2]; fluorescence microscopy
  uptake in CHO cells transfected with FIBCD1 cDNA: mediate uptake
[2]
  uptake in non-transfected CHO cells: no uptake

## O=C[C@H](O)[C@@H](O)[C@@H](O)[C@H](O)CO [Galactose, galactose, reference compound]
FIBCD1 ectodomain; [3]
  I50 of the binding between FIBCD1 and acetylated BSA: N.I.

## CC(=O)N[C@H]1C(O)O[C@H](CO)[C@@H](O)[C@@H]1O (some centres unmarked) [N-acetylglucosamine, N-acetyl glucosamine]
FIBCD1 ectodomain
  I50 relative (relative inhibitor potential): 0.5
  pIC50: 2.40
[2]; CHO/FIBCD1 cells
  uptake and degradation of 125I labelled acetylated BSA: inhibited
